Consider 34 compounds from patent US20260216294A1, “BETA 2-ADRENERGIC RECEPTOR AGONISTS FOR TREATMENT OR PREVENTION OF MUSCLE WASTING” (ATROGI AB, priority 2023, published 2026).

For experiment [1], the system named is L6-myotubes. Description: Measurement of intracellular cAMP levels in differentiated L6-myotubes (Biological Example 3). In kind it is cell-based. The following applies: for Emax at 10 µM: 0.25 h. The essentials: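 Intracellular cAMP quantified by AlphaScreen after ethanol extraction and lysis of L6 myotubes. Cells were serum-starved overnight, then exposed for 15 min to compound (final 1×10^−5 M) or isoprenaline in IBMX-containing (1 mM) HBSS buffer, pH 7.4.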

For experiment [2], the system named is L6-myotubes. Description: Glucose uptake in differentiated L6-myotubes (Biological Example 2). In kind it is cell-based. The following applies: for Emax at 10 µM: read-out: Biological example 2 (GU). The essentials:
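Uptake was quantified as radioactivity in 0.2 M NaOH lysates after a 10 min pulse of 50 nM ^3H-2-deoxyglucose. The pulse followed two agonist exposures at 1×10^−5 M final (isoprenaline or test compound): 1 h 40 min, then 20 min in glucose-free medium after washing. L6 myotubes had been starved overnight in medium with 0.5% fatty-acid-free BSA.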

Where [3] appears, read: intracellular cAMP, compound at 10 μM relative to isoproterenol at 10 μM.
Where [4] appears, read: glucose uptake, compound at 10 μM relative to isoproterenol at 10 μM.
Setting [5] is: intracellular cAMP in differentiated L6-myotubes, compound at 10 μM, activity relative to isoproterenol at 10 μM.
The mark [6] stands for this setting: glucose uptake in differentiated L6-myotubes, compound at 10 μM, activity relative to isoproterenol at 10 μM.

Regarding `CCC[C@@H]1CCC[C@H]([C@@H](O)c2cccc(O)c2)N1` [Compound 137, (S)-[(2R,6R)-6-propyl-2-piperidyl](m-hydroxyphenyl)methanol], the Emax at 10 µM was under 25% in experiment [1] (setting [3]) and 25 to 50% in experiment [2] (setting [4]).
On the same counts, the results for `CC1(C)CCC[C@@H]([C@H](O)c2ccccc2F)N1` [Compound 193] are 25 to 50% and over 75%.
On to `O[C@H](c1cccc(F)c1)[C@H]1CC[C@H](Cc2ccc(Cl)cc2)N1` [Compound 393, (R)-{(2R,5R)-5-[(p-chlorophenyl)methyl]-2-pyrrolidinyl}(m-fluorophenyl)methanol], for which the Emax at 10 µM was under 25% in experiment [1] (setting [5]) and over 75% in experiment [2] (setting [6]).
Consider `CC(C)(C[C@H]1CC[C@H](NC(=O)c2ccccc2)CC1)NC[C@H](O)c1cccc(F)c1` [Compound 384], for which the Emax at 10 µM in experiment [1] (setting [5]) and in experiment [2] (setting [6]) was over 75% throughout.
On to `CN([C@H]1CC[C@@H](CC(C)(C)NC[C@H](O)c2cccc(F)c2)CC1)S(C)(=O)=O` [Compound 498, (R)-2-{1,1-dimethyl-2-[(1s,4S)-4-(N-mesyl-N-methylamino)cyclohexyl]ethylamino}-1-(m-fluorophenyl)-1-ethanol], for which the Emax at 10 µM in experiment [1] (setting [5]) is under 25%; in experiment [2] (setting [6]) it was 25 to 50%.
In the case of `CC12CCC([C@@H](O)c3ccccc3Cl)(CC1)N2` [Compound 194, (S)-(o-chlorophenyl)(4-methyl-7-azabicyclo[[2.2.1]]hept-1-yl)methanol], the Emax at 10 µM in experiment [1] (setting [3]) is under 25%; in experiment [2] (setting [4]), over 75%.
For the compound `CO[C@H]1CC[C@H](C(C)(C)NC[C@H](O)c2cccc(F)c2)CC1` [Compound 239, (R)-1-(m-fluorophenyl)-2-{1-methyl-1-[(1r,4R)-4-methoxycyclohexyl]ethylamino}-1-ethanol], the Emax at 10 µM in experiment [1] (setting [5]) is under 25%; in experiment [2] (setting [6]), over 75%.
On the same counts, the results for `CC(C)(NC[C@H](O)c1cncc(F)c1)[C@H]1CC[C@@H](OCc2ccccc2)CC1` [Compound 282, (R)-1-(5-fluoro-3-pyridyl)-2-{1-methyl-1-[(1s,4S)-4-(benzyloxy)cyclohexyl]ethylamino}-1-ethanol] are under 25% and 50 to 75%.
On the same counts, the results for `CC(C)(C[C@H]1CC[C@H](NS(C)(=O)=O)CC1)NC[C@H](O)c1cccc(C(F)(F)F)n1` [Compound 461, (S)-2-{1,1-dimethyl-2-[(1r,4S)-4-(mesylamino)cyclohexyl]ethylamino}-1-[6-(trifluoromethyl)-2-pyridyl]-1-ethanol] are under 25% and 25 to 50%.
For the compound `CC(C)(C)NC[C@H](O)c1cncc(F)c1` [Compound 99, (R)-2-(tert-butylamino)-1-(5-fluoro-3-pyridyl)-1-ethanol], the Emax at 10 µM in experiment [1] (setting [3]) was 25 to 50%; in experiment [2] (setting [4]), over 75%.
Turning to `CC(C)(C[C@H]1CC[C@@H](N)CC1)NC[C@H](O)c1cccc(C#N)n1` [Compound 418, 6-[(S)-2-{1,1-dimethyl-2-[(1s,4R)-4-aminocyclohexyl]ethylamino}-1-hydroxyethyl]-2-pyridinecarbonitrile], the Emax at 10 µM in experiment [1] (setting [5]) was under 25%; in experiment [2] (setting [6]), 50 to 75%.
On the same counts, the results for `CC(C)(C[C@H]1CC[C@H](S(N)(=O)=O)CC1)NC[C@H](O)c1cccc(F)c1` [Compound 516, (1R,4r)-4-{2-[(R)-2-(m-fluorophenyl)-2-hydroxyethylamino]-2-methylpropyl} cyclohexanesulfonamide] are under 25% and over 75%.
Turning to `CC1(C)CCC[C@H]([C@@H](O)c2cccc(O)c2)N1` [Compound 103], the Emax at 10 µM is under 25% in experiment [1] (setting [3]) and 25 to 50% in experiment [2] (setting [4]).
For `CC(C)(NC[C@H](O)c1cncc(F)c1)[C@H]1CC[C@H](OCC(=O)O)CC1` [Compound 419], the Emax at 10 µM is under 25% in experiment [1] (setting [5]) and 50 to 75% in experiment [2] (setting [6]).
Regarding `CC12CC(C1)[C@H]([C@@H](O)c1cccc(F)c1)N2` [Compound 187], the Emax at 10 µM in experiment [1] (setting [3]) is under 25%; in experiment [2] (setting [4]), 25 to 50%.
Regarding `CC12CC(C1)[C@@H]([C@H](O)c1ccccc1F)N2` [Compound 213], the Emax at 10 µM is under 25% in experiment [1] (setting [5]) and over 75% in experiment [2] (setting [6]).
Regarding `O[C@@H](CNC[C@H]1CC[C@H](O)CC1)c1cccc(F)c1` [Compound 272, (R)-1-(m-fluorophenyl)-2-({[(1r,4R)-4-hydroxycyclohexyl]methyl}amino)-1-ethanol], the Emax at 10 µM in experiment [1] (setting [5]) was under 25%; in experiment [2] (setting [6]), 25 to 50%.
As to `CS(=O)(=O)N[C@H]1CC[C@H](C[C@@H]2CC[C@H]([C@@H](O)c3cccc(F)c3)N2)CC1` [Compound 505, (S)-[(2R,5S)-5-{[(1r,4S)-4-(mesylamino)cyclohexyl]methyl}-2-pyrrolidinyl](m-fluorophenyl)methanol], the Emax at 10 µM in experiment [1] (setting [5]) and in experiment [2] (setting [6]) was under 25% in each case.
Take `CCC[C@H]1CCC[C@H]([C@H](O)c2ccccc2F)N1` [Compound 93, (R)-[(2R,6S)-6-propyl-2-piperidyl](o-fluorophenyl)methanol]: the Emax at 10 µM in experiment [1] (setting [3]) is under 25%; in experiment [2] (setting [4]) it was 25 to 50%.
With `CC(C)(NC[C@H](O)c1cccc(F)c1)[C@H]1CC[C@@H](OCc2ccccc2)CC1` [Compound 280, (R)-1-(m-fluorophenyl)-2-{1-methyl-1-[(1s,4S)-4-(benzyloxy)cyclohexyl]ethylamino}-1-ethanol], the results for the Emax at 10 µM in experiment [1] (setting [5]) and in experiment [2] (setting [6]) were under 25% and over 75%, respectively.
On the same counts, the results for `CS(=O)(=O)N(Cc1ccccc1)c1cccc(CC23CCC([C@@H](O)c4cccc(F)c4)(CC2)N3)c1` [Compound 512] are under 25% and under 25%.
Take `CCCCNCC(O)c1cccc(Cl)c1` (centres unmarked) [Compound 2, 2-(butylamino)-1-(m-chlorophenyl)-1-ethanol]: the Emax at 10 µM in experiment [1] (setting [3]) is under 25%; in experiment [2] (setting [4]), 25 to 50%.
With `CC1(C)CCC[C@H]([C@H](O)c2cccc(O)c2)N1` [Compound 104, (R)-[(R)-6,6-dimethyl-2-piperidyl](m-hydroxyphenyl)methanol], the Emax at 10 µM was under 25% in experiment [1] (setting [3]) and 25 to 50% in experiment [2] (setting [4]).
On to `CO[C@H]1CC[C@H](C[C@@H]2CC[C@H]([C@@H](O)c3cncc(F)c3)N2)CC1` [Compound 332], for which the Emax at 10 µM is under 25% in experiment [1] (setting [5]) and 25 to 50% in experiment [2] (setting [6]).
For the compound `CC1(NC[C@H](O)c2cccc(F)c2)CC1` [Compound 82, (R)-1-(m-fluorophenyl)-2-(1-methylcyclopropylamino)-1-ethanol], the results for the Emax at 10 µM in experiment [1] (setting [3]) and in experiment [2] (setting [4]) were under 25% and over 75%, respectively.
For the compound `CN(C)S(=O)(=O)[C@H]1CC[C@H](CC(C)(C)NC[C@H](O)c2cncc(F)c2)CC1` [Compound 465], the Emax at 10 µM in experiment [1] (setting [5]) was in the range of 25 to 50%; in experiment [2] (setting [6]) it was 50 to 75%.
On the same counts, the results for `O[C@H](c1cccc(F)c1)C12CCC(COc3ccc(Cl)cc3)(CC1)N2` [Compound 441, (R)-{4-[(p-chlorophenoxy)methyl]-7-azabicyclo[[2.2.1]]hept-1-yl}(m-fluorophenyl)methanol] are under 25% and over 75%.
Consider `CC(C)(CC[C@H]1CC[C@H](C(=O)O)CC1)NC[C@H](O)c1cncc(F)c1` [Compound 343, (1R,4r)-4-{3-[(R)-2-(5-fluoro-3-pyridyl)-2-hydroxyethylamino]-3-methylbutyl} cyclohexanecarboxylic acid], for which the Emax at 10 µM is under 25% in experiment [1] (setting [5]) and 25 to 50% in experiment [2] (setting [6]).
Consider `CC1(C)CCC[C@H]([C@H](O)c2ccccc2Cl)N1` [Compound 162, (R)-[(R)-6,6-dimethyl-2-piperidyl](o-chlorophenyl)methanol], for which the Emax at 10 µM in experiment [1] (setting [3]) was under 25%; in experiment [2] (setting [4]), 25 to 50%.
On the same counts, the results for `CC1(C)CC[C@H]([C@@H](O)c2ccc(F)cc2)N1` [Compound 172] are under 25% and under 25%.
With `CC12CCC([C@H](O)c3cccc(Cl)c3)(CC1)N2` [Compound 197, (R)-(m-chlorophenyl)(4-methyl-7-azabicyclo[[2.2.1]]hept-1-yl)methanol], the Emax at 10 µM was under 25% in experiment [1] (setting [3]) and over 75% in experiment [2] (setting [4]).
On to `CC(=O)N(C)[C@H]1CC[C@@H](CC(C)(C)NC[C@H](O)c2cncc(F)c2)CC1` [Compound 492], for which the “Biological example 3 (CAMP)” value in experiment [1] (setting [5]) was “− (if it less than 25% it is denoted with −)”. The “Biological example 2 (GU)” value in experiment [2] (setting [6]) is “+ (if it is between 50 and 25% it is denoted with +)”.
`CC(C)(C[C@H]1CC[C@H](NC(=O)C(C)(C)C)CC1)NC[C@H](O)c1cccc(F)c1` [Compound 429]: the Emax at 10 µM in experiment [1] (setting [5]) is 25 to 50%; in experiment [2] (setting [6]) it was over 75%.
On the same counts, the results for `CC1(C)CC[C@H]([C@H](O)c2cccc(N)c2F)N1` [Compound 227, (R)-[(R)-5,5-dimethyl-2-pyrrolidinyl](3-amino-2-fluorophenyl)methanol] are under 25% and over 75%.
